Data published in patent US9572788B2, “Cell permeable inhibitors of anaphase promoting complex” (President and Fellows of Harvard College, priority 2014, dated 2017).

Tests used:
[1] = test system: U2OS-H2B-GFP cells; assay: Fluorescence live cell imaging with survival (Cox) analysis, U2OS; assay type: cell-based, human; conditions: proTAME 12 μM
Method: Mitotic duration and cell fate were determined by manual inspection of the movies and plotted as Kaplan-Meier curves. The hatch marks on the Kaplan-Meier curved indicate mitotic duration endpoints of censored cells. Includes the combined results of five independent experiments. […] Pairwise comparison between proTAME and proTAME+apcin-M tested using a Cox proportional hazards model stratified by date, using data from only the experimental blocks in which both proTAME and proTAME+apcin were tested.
Movies were manually analyzed using Nikon Elements software or Image J.
Plates were inserted into a covered chamber supplied with humidified 5% CO2 and mounted onto a motorized microscope stage (Prior Scientific). […] A Hamamatsu ORCA cooled CCD camera collected the images with 2×2 binning using Nikon Elements software (version 3.0). Movies were manually analyzed using Nikon Elements software or ImageJ. Mitotic duration was defined as the time from nuclear envelope breakdown until anaphase, in the case of normal mitosis, or until exit from prolonged mitosis as indicated by cytoplasmic blebbing accompanied by changes in chromatin as detected by H2B-GFP.
The Cox proportional hazards model is a semiparameteric approach to modeling time-to-event data, in which covariates are assumed to have constant proportional effects over time relative to a baseline hazard function that can take any form. In this case, stratification on “person” (the individual who analyzed the movie) and “date” (the date the assay was run) allow the baseline hazard function to differ across experimental blocks, but assume a fixed effect of treatment across experimental blocks. The model is thus: hi(t|Z=j)=hj(t)exp(β1×apcini+β2×apcinMi+β3×proTAMEi+β4×proTAMEi:apcinMi+β5×proTAMEi:apcini), j=1 . . . […] This model was fit separately to cells treated with control siRNA or Mad2 siRNA. All statistical analysis was carried out in R 3.0.0 using the functions available as part of the survival package.

[2] = ProTAME activation analysis (LC/MS) in extract; assay type: in vitro ADME; conditions: 50 μM in interphase Xenopus extract
Method: (§1) ProTAME was added to interphase Xenopus extract at 50 μM or cell growth media at 20 μM. For interphase extract, 800 μl of sample was collected at 0 min, 10 min, 20 min and 30 min after addition of proTAME and diluted to 8 ml with XB. For cell culture, approximately 800,000 cells were collected at 1 h, 2 h and 3 h after addition of proTAME and lysed in 400 μl lysis buffer as described above and subsequently diluted to 4 ml with lysis buffer. The diluted extract or cell lysate was extracted with 1.5 volume of ethyl acetate. The extracts were dried in vacuo and the dry extracts were resuspended in 200 μl of methanol for LC/MS analysis. LC/MS data were obtained using an Agilent series 1200 LC/6130 MS system with a reversed-phase C18 column (Phenomenex Luna C18(2), 4.6 mm×100 mm, 5 μm) and a CH3CN/H2O gradient solvent system beginning with 10% aqueous CH3CN and ending at 100% CH3CN at 20 min. 10 μl of each sample was injected for each analysis.

[3] = test system: HeLa cells; assay: ProTAME activation analysis (LC/MS) in HeLa cells; assay type: in vitro ADME, human; conditions: 20 μM
Method: as §1

[4] = biological target: T1, APC (Homo sapiens, UniProt P30260); assay: Cdc20/Cdh1 binding assay in HeLa cells (APC immunoprecipitation); assay type: cell-based
T1 construct: endogenous in cells; host or cells: HeLa cells (synchronised; some with Mad2/BubR1 siRNA and cyclin B1-delta107 adenovirus)
T1 sequence (P30260 whole entry): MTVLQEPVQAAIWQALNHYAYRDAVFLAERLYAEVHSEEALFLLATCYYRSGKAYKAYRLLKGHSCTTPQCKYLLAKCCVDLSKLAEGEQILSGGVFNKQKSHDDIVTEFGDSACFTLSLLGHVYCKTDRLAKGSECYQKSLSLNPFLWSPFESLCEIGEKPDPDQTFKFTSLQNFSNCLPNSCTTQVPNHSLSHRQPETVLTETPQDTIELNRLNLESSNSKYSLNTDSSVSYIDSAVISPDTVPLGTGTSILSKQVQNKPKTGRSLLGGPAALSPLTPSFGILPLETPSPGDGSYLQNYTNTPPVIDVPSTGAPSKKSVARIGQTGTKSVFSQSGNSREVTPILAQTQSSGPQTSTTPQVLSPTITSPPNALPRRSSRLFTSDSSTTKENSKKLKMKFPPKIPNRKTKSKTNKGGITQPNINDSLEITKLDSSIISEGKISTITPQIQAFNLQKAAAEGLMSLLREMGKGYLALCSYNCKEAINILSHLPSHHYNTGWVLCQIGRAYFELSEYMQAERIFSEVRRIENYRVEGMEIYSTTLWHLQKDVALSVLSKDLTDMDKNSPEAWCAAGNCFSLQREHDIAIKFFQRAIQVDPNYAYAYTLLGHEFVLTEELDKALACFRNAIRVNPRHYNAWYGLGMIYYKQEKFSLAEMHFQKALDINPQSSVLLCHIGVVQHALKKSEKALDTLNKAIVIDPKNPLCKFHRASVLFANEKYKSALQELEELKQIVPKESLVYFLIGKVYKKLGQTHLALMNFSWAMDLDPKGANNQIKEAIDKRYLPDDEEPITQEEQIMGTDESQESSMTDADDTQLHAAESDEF
Method: HeLa cells in DMEM 10% FBS were plated in T25 flasks at 20% confluence one day prior to the experiment. They were then synchronized by a double thymidine block (18 h for the first block, 8 h release and another 18 h for the second block, thymidine concentration: 2 mM). For analysis of Cdh1 binding, cells were released into […] from the second thymidine block for 13 h and then washed into fresh medium. Six h later, cells were treated with 12 μM proTAME or proAAME or 0.06% DMSO for 2 h and then collected by trypin digestion. For analysis of Cdc20 binding, cells were transfected with indicated siRNAs during the first release from thymidine block after two washes with DPBS (CellGro 21-030-CV) and addition of 6.3 ml OptiMEM. A volume (79 μl) of 20 μl Control siRNA#3 or a 1:1 mix of 20 μl MAD2 siRNA and BubR1 siRNA (Dharmacon D-004101-01, 5′-[…]-3′ (SEQ ID NO: 11)) was mixed in 1381 μl OptiMEM in a tube, 23.7 μl OligoFectamine were mixed with 94.1 μl OptiMEM in a second tube. After 5 min incubation at RT, the tubes contents were mixed and siRNA-reagent complexes were allowed to form for 20 min at RT. The transfection mixes were added to cells in OptiMEM and FBS was added to 10% after 5 h transfection. Cyclin B1-Δ107 expressing adenovirus (1:100) was added at the start of the second thymidine block and kept in the medium for all subsequent steps. Cells were treated at 10 h after release with 100 nM okadaic acid, 25 μg/ml cycloheximide and 12 μM proTAME as indicated. After 2 h treatment, cells were collected by mitotic shake-off. Cell pellets were washed twice with DPBS and flash-frozen with liquid nitrogen and stored at −80° C. until use. Cell lysis and APC immunoprecipitation were performed as described above.

[5] = test system: HeLa cells; assay: Endogenous APC substrate levels by immunoblot in synchronized HeLa cells; assay type: cell-based, human; conditions: 12 μM
Method: FIG. 1E is a series of photographs of gel electrophoresis analysis showing that proTAME stabilizes endogenous APC substrates. HeLa cells were synchronized by double thymidine procedure and released into compounds (12 μM). Protein levels were measured by immunoblot.

Structure (SMILES): COC(=O)[C@H](CCCN/C(=N\C(=O)OCOC(=O)Cc1ccccc1)NC(=O)OCOC(=O)Cc1ccccc1)NS(=O)(=O)c1ccc(C)cc1 [proTAME]
- Median mitotic duration ([1]; Table 7, apcin or apcin-M 25 μM): 180
- % rate of mitotic exit ([1]; relative to DMSO control, Cox model, apcin/apcin-M 25 μM): 3.63%
- Conversion of prodrug to TAME [2]: rapidly converted to TAME
- Activation of prodrug [3]: activated efficiently in HeLa cells
- Dissociation of Cdc20 from the APC ([4]; HeLa arrested by nondegradable cyclin B, 12 μM): induced significant dissociation of Cdc20 from the APC, but only if SAC proteins were depleted by RNAi
- Cdh1 association with the APC ([4]; HeLa cells in G1, 12 μM): inhibited Cdh1 association with the APC
- Reduction in Cdc20 binding to the APC ([4]; HeLa, 12 μM plus 10 μM MG132 for 2 hours): 30%
- Stabilization of endogenous cyclin B and securin [5]: dramatically stabilized
